Data: PMC9916806, “Tachykinin Receptor-Selectivity of the Potential Glioblastoma-Targeted Therapy, DOTA-[Thi^8,Met(O2)^11]-Substance P” (International Journal of Molecular Sciences, 2023)

What was measured:
[1] = ref [29]; cited from earlier work
From the text: In glioblastoma multiforme NK1Rs are believed to be highly expressed on the tumour cells and also within the tumour neovasculature, conferring the ability to concurrently target vascular and neoplastic structures. […] However, its therapeutic effectiveness is fairly constra ...

[2] = target: T1, NK1R (Homo sapiens, UniProt P25103); test: IP accumulation assay, NK1R activation (HEK293-T cells); type: cell-based; settings: HEK293-T cells transfected with NK1R, 1 h at 37 °C, mean ± SEM (n = 3)
T1 construct: host or cells: HEK293-T
T1 sequence (P25103 whole entry): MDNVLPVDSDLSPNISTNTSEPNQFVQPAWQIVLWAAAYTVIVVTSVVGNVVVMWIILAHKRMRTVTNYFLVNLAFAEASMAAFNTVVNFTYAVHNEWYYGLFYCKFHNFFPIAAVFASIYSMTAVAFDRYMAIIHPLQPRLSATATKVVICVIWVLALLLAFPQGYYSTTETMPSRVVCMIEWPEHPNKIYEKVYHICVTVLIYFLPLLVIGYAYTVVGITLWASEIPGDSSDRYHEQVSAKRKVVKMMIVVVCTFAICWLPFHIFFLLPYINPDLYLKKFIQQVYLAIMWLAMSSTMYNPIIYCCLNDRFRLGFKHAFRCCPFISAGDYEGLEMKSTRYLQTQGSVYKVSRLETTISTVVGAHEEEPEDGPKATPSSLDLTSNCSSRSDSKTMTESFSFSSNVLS
From the text: (§1) pcDNA mammalian expression vectors encoding human NK3R (GenBank accession number: AY462098), NK2R (GenBank accession number: AY322545), NK1R (GenBank accession number: AY462099) and MRGPRX2 (GenBank accession number: NM_054030) were obtained from the Bloomsburg University cDNA Resource Center (www.cdna.org [accessed on 18 October 2018]). The NK1R, NK2R and NK3R vectors included an N-terminal 3xHA epitope tag. The empty vector, pcDNA3.1, was obtained from Thermo Fisher Scientific (Waltham, MA, USA). […] Talnetant was kindly supplied by Dr Mike Trower (NeRRe Therapeutics, Stevenage, UK).
(§2) Modified human embryonic kidney cells (HEK293-T; American Tissue and Cell Culture Collection), which provide a ‘blank’ background (with little/no endogenous tachykinin receptor nor MRGPRX2 expression) and stably express large T-antigen for optimal expression of exogenous proteins, were utilised. […]
(§3) The tachykinin receptors elicit intracellular signalling responses primarily through coupling to, and the activation of, Gαq/11 G proteins. […] These can be isolated using ion exchange chromatography and their radioactivity measured, with the amount of radiolabelled IP generated (i.e., the level of radioactivity measured) being proportional to the signalling activity of the receptor [48]. […]

[3] = set-up: method as in PMID 31480582; settings: ref [19]; cited from earlier work
[4] = set-up: method as in PMID 31480582; settings: ref [19]; cited from earlier work; remark: listed apart in the source
[5] = test system: MRGPRX2; settings: ref [14]; cited from earlier work
From the text: Glioblastoma multiforme is one of the most common and most aggressive forms of central nervous system tumour and, despite therapeutic advances, it remains largely incurable. […] SP is a member of the tachykinin family of neuropeptides, of which the other classical members are neurokinin-A (NKA) and ...

[6] = test system: all three tachykinin receptors (NK1R, NK2R, NK3R); settings: albeit with differing potencies; ref [11],[13]; cited from earlier work
[7] = test system: NK1R; settings: native tachykinins; ref [11],[13]; cited from earlier work
[8] = target: T2, NK3R (Homo sapiens, UniProt P29371); test: IP accumulation assay, NK3R activation (HEK293-T cells); type: cell-based; settings: 1 µM SP; Supplemental Figure S3, % of cognate native ligand (NKB) response; single experiment (n=1); also ref [11]
T2 construct: host or cells: HEK293-T
T2 sequence (P29371 1-465): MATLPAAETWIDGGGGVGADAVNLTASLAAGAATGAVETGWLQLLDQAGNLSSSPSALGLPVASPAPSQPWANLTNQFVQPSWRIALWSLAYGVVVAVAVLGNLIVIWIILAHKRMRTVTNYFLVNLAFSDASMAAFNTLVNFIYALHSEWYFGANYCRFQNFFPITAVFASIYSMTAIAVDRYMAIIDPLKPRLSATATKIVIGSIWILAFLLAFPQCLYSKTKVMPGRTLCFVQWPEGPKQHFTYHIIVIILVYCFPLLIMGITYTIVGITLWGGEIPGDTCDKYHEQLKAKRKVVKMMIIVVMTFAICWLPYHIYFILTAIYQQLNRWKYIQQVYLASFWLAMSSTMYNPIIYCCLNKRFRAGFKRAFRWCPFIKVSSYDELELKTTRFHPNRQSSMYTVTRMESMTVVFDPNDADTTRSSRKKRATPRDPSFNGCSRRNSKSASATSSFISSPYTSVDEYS
From the text: as §1, §2, §3

[9] = test system: NK3R; set-up: method as in PMID 9190866; settings: ref [49]; cited from earlier work
Protocol: For single-concentration analyses, cells were incubated with 1 µM [NK1R, NK2R, NK3R and empty vector) or 10 µM [MRGPRX2 and empty vector]

[10] = target: T2, NK3R; test: NK3R antagonism, IP accumulation assay; type: cell-based; settings: 1 µM compound, 30 min pre-incubation at 37 °C, then 30 nM NKB 1 h; Figure 4; n = 4 (talnetant: two experiments)
From the text: as §1
Modified human embryonic kidney cells (HEK293-T; American Tissue and Cell Culture Collection), which provide a ‘blank’ background (with little/no endogenous tachykinin receptor nor MRGPRX2 expression) and stably express large T-antigen for optimal expression of exogenous proteins, were utilised. Cells were cultured in a humidified atmosphere at 37 °C with 5% CO2 in Dulbecco’s Modified Eagle Medium containing GlutaMAX™ (DMEM) (Life Technologies, Carlsbad, CA, USA) supplemented with 10% foetal calf serum (FCS) (Life Technologies, Carlsbad, CA, USA). Cells were passaged regularly to maintain them at less than 80% confluence. […]

In the case of CC(C)C[C@H](NC(=O)CNC(=O)[C@H](Cc1cccs1)NC(=O)[C@H](Cc1ccccc1)NC(=O)[C@H](CCC(N)=O)NC(=O)[C@H](CCC(N)=O)NC(=O)[C@@H]1CCCN1C(=O)[C@H](CCCCN)NC(=O)[C@@H]1CCCN1C(=O)[C@H](CCCNC(=N)N)NC(=O)CN1CCN(CC(=O)O)CCN(CC(=O)O)CCN(CC(=O)O)CC1)C(=O)N[C@@H](CCS(C)(=O)=O)C(N)=O [DOTA-[Thi^8,Met(O2)^11]SP, 1,4,7,10-tetraazacyclododecane-1,4,7,10-tetraacetic acid-[Thi^8,Met(O2)^11]-SP], the metabolic stability [1] is given as “metabolically stable”, the Emax ([2]; HEK-293T, Table 2, % of the maximal response elicited by SP (Figure 3)) is given as 89 ± 1% and the EC50 ([2]; Table 2, comparison of SP with DOTA-[Thi8,Met(O2)11]SP) is given as 3.31 nM. For the same compound, the “in vivo half-life compared to native SP” value [3] was “increased lipophilicity and in vivo half-life” and the “lipophilicity compared to native SP” value [4] was “increased lipophilicity”.

In the case of CSCC[C@H](NC(=O)[C@H](CC(C)C)NC(=O)CNC(=O)[C@H](Cc1ccccc1)NC(=O)[C@H](Cc1ccccc1)NC(=O)[C@H](CCC(N)=O)NC(=O)[C@H](CCC(N)=O)NC(=O)[C@@H]1CCCN1C(=O)[C@H](CCCCN)NC(=O)[C@@H]1CCCN1C(=O)[C@@H](N)CCCNC(=N)N)C(N)=O [SP, Substance P], the “agonism at MRGPRX2” value [5] is given as “low potency agonist”, the “agonism at all three tachykinin receptors” value [6] is given as “full agonists” and the “affinity for NK1R” value [7] is given as “highest affinity for NK1R”. For the same compound, the “NK3R response to SP” value [8] was “able to elicit a response”.

In the case of CC[C@H](NC(=O)c1c(O)c(-c2ccccc2)nc2ccccc12)c1ccccc1 [talnetant, (S)-N-(1-phenylpropyl)-3-hydroxy-2-phenylquinoline-4-carboxamide], the NK3R antagonism [9] is given as “non-peptide antagonist of the NK3R” and the “inhibition of NK3R activation” value [10] is given as “NKB-induced NK3R activation was completely abolished”.
